# Measurements taken from article PMC10731658 (Chemical Research in Toxicology, 2023).
# Read-outs that look alike come from different tables or passages of the source.
# How the values were obtained:
# [1] = test system: HepG2 cells; conditions: read-out: IC50 (cytotoxicity in HepG2 cells); conventional oximes; cited from earlier work
# [2] = test system: HepG2 cells; test: Intracellular RONS detection with DCFH-DA fluorescent probe; assay type: cell-based, human; conditions: IC50 concentration
# Experimental: (§1) Two different fluorescent dyes, i.e., 2,7-dichlorodihydrofluorescein diacetate (DCFH-DA, Cayman Chemicals Company, Ann Arbor, MI) and dihydroethidium (DHE, Sigma-Aldrich, St. Louis, MO) were utilized for the determination of intracellular levels of RONS after 1, 4, and 24 h of incubation with tested oxime reactivators or TBHP (positive control). Cells incubated with oxime-free DMEM represented untreated control. After the incubation, the experimental medium was removed and replaced with a solution of DCFH-DA or DHE at concentrations of 20 and 5 μmol/L, respectively. The cells were subsequently incubated at 37 °C in a CO2 incubator for 45 min. Afterward, the fluorescence intensity of each well was measured using a Spark multimode microplate reader at an excitation wavelength of 485 nm for DCFH-DA or 528 nm for the DHE probe and an emission wavelength of 535 or 590 nm, respectively. Each experiment was carried out in triplicate and repeated three independent times.
# (§2) The toxicological indices IC50 were calculated from control-subtracted triplicates using nonlinear regression (four parameters) using GraphPad Prism 9 software version 9.3.0 (GraphPad Software Inc., San Diego, CA). One-way analysis of variance (ANOVA) followed by Dunnetʼs multiple comparison test was used for RONS, MDA, NP-SH, and NP-SS-NP statistical analysis by GraphPad Prism 9 software, version 9.3.0. Data are expressed as means ± standard deviation (SD) of three independent measurements (n = 3). Significant differences between oxime-treated and untreated control groups (p ≤ 0.05) were marked by an asterisk (*).
# [3] = test system: HepG2 cells; test: Intracellular RONS detection with DHE fluorescent probe; assay type: cell-based, human; conditions: IC50 concentration; for increase of free radicals/RONS (DHE probe) vs negative control: 1 h incubation
# Experimental: as §1, §2
# [4] = test system: HepG2 cells; test: Total intracellular MDA by LC-MS/MS; assay type: cell-based, human; conditions: IC50 concentration
# [5] = test system: HepG2 cells; test: Intracellular nonprotein thiols (NP-SH) by HPLC-UV; assay type: cell-based, human; conditions: IC50 concentration
# Experimental: (§3) The culture medium was removed from a 25 cm^2 culture flask on the day of the experiment, and cells were washed twice with 3 mL of phosphate-buffered saline (PBS; GE Healthcare Life Sciences, South Logan, UT). Subsequently, 3 mL of a plain DMEM medium (negative control) and a DMEM medium containing TBHP (positive control) or individual oximes were added to each flask, and cells were incubated for 1, 4, and 24 h. The concentration of individual oxime and TBHP in the DMEM medium corresponded to the IC50 value. After incubation, the experimental medium was removed, and cells were washed with 3 mL of PBS and harvested by scraping. The resulting suspension was centrifuged at 220g and 21 °C for 5 min (Universal 320R centrifuge, Hettich, Tuttlingen, Germany). The supernatant was removed and dried cell pellets were stored at −80 °C. Each experiment was carried out in three independent replicates.
# (§4) The cell pellets were thawed at room temperature, resuspended in 500 μL of ultrapure water (Millipore Purification System, Merck, Millipore, Darmstadt, Germany), and sonicated for 2 min (2 s cycle, amplitude 20%) in a Q500 homogenizer (QSONICA Sonicators, Newton). Then, the homogenate was divided into three parts: 250 μL for the determination of malondialdehyde (MDA), 100 μL for each determination of nonprotein thiols (NP-SH) and disulfides (NP-SS-NP), and 10 μL for the Bradford protein assay.
# (§5) The HepG2 cell homogenate obtained, as described in Section 2.6, was processed for the determination of intracellular NP-SH and NP-SS-NP, according to Muckova et al.[11] The samples were analyzed using the HPLC system described above equipped with an SPD 20-AV Prominence UV/vis detector. The analysis was carried out on a Phenomenex LUNA C18 column (150 mm × 3 mm, 3 μm, 100 Å) protected with a Security Cartridge (4 mm × 2 mm, Phenomenex, Torrance) at 30 °C and a constant flow rate of 0.330 mL/using the mobile phase consisting of 0.9% aqueous FA (A) and ACN (B) under gradient conditions: 0–1 min 12% B, 1.1–2 min 12–55% B, 2–7 min 55% B, 7.1 min 55% B, and 7.1–10 min 12% B. The detector was set at 326 nm and the sample injection volume was 20 μL.
# [6] = test system: HepG2 cells; test: Intracellular nonprotein disulfides (NP-SS-NP) by HPLC-UV; assay type: cell-based, human; conditions: IC50 concentration
# Experimental: as §3, §4, §5
# [7] = test system: HepG2 cells; test: Flow cytometric detection of cell death (Annexin V & Dead Cell Assay); assay type: cell-based, human; conditions: IC50 concentration
# From the text: 2. Flow cytometric detection of cell death
# The microcapillary flow cytometry (Muse™ Cell Analyzer, Luminex, Austin, TX) was used to determine cell death.
# This method is based on detecting externalization of phosphatidylserine on the surface of cells undergoing apoptosis.
# The technique allows quantitative analysis of non-apoptotic, early apoptotic, late apoptotic, and necrotic cells. The reagent mixture also contains the membrane non-permeable dye 7-aminoactinomycin D. This component distinguishes necrotic and late apoptotic cells from the live and early apoptotic cells. The measurement of cell death was carried out according to manufacturer instructions after 1, 4, and 24 h incubation with tested oxime reactivators and with oxime-free medium as an untreated control. During the first day of the experiment, cells were seeded into a 24-well plate (TPP) with a density of […]. After the incubation, cells from each well were collected into the polystyrene tube (TPP) and centrifuged for 5 min at 1000 × g at room temperature. The supernatant was discarded. The cell suspensions […]
# were prepared in fresh medium DMEM. Afterward 100 μL of cell suspension were mixed with the 100 μL of Muse™ Annexin V & Dead Cell Assay reagent, and the samples were incubated for 20 min at room temperature in the dark.
# Per measurement, 5000 cells were analyzed. Each experiment was performed in triplicates and repeated three independent times. The concentration of K048, K074, K075, and K203 oximes and TBHP (positive control) used in […]
# After 1 h of incubation (Figure S-1.) with tested oxime reactivators and TBHP as the positive control, the percentage […]
# A significant change in the percentage of
# The amount of early apoptotic cells
# . On the other hand, the percentage of late apoptotic cells was […]
# control cells. The count of late apoptotic cells enlarged by 7.74, 4.71 , 4.17, 4.13, and 3.20 %, respectively. The statistical differences were also found in the percentage of necrotic cells in this time interval. The highest increment […]
# K048, K074, K075, and K203 groups when compared with control.
# K075, and K203 treated groups, respectively, when compared with control. Finally, the percentage of necrotic cells […]
# Fig. S-1 The percentage of intact (white column), early (light grey column), late apoptotic (dark grey column), and necrotic HepG2 cells (black column) determined using microcapillary flow cytometry after 1 h, 4 h and 24 h treatment with oxime acetylcholinesterase reactivators or TBHP (positive control). Control represents the cells incubated with an oxime-free culture medium. One-way analysis of variance (ANOVA) followed by Dunnetʼs multiple comparison test was used for statistical analysis by GraphPad Prism 9 software version 9.3.0. Data are expressed as means ± standard deviation (SD) of three independent measurements (n = 3). Significant differences between oxime-treated and untreated control groups (p ≤ 0.05) and marked by asterisk (*).
# 3. Stability of oximes in DMEM medium at 37 °C over 24 hours
# The stability of oximes K048, K074, K075, and K203 in DMEM medium, with concentrations corresponding to their […]
# UV, following the chromatographic conditions described by Vanova et al. (2021)13. The results over the tested time […]
# Fig. S-2 Data are expressed in percentage as means ± standard deviation (SD) of three independent measurements […]
# [8] = test system: HepG2 cells; conditions: from 15 min after simultaneous incubation with TBHP (IC50 concentration); oximes about 10-fold below IC50; cited from earlier work
# [9] = test system: rat plasma; conditions: in vivo, 23 mg/kg; cited from earlier work
# [10] = test system: HepG2 cells; test: Colorimetric MTT cell viability assay, 24 h; conditions: read-out: IC50 (cytotoxicity, MTT assay), 24 h incubation
# [11] = Colorimetric MTT cell viability assay, 24 h; conditions: human, HepG2 cells, IC50 (cytotoxicity, MTT assay), 24 h incubation
smiles,measurement,setting,value
"NC(=O)c1cc[n+](COC[n+]2ccccc2/C=N/O)cc1 [HI-6, asoxime]",IC50,[1],~3 mM
"NC(=O)c1cc[n+](C/C=C/C[n+]2ccc(C=NO)cc2)cc1.[Br-].[Br-] [K203, 4-carbamoyl-1-((2E)-4-(4-((hydroxyimino)methyl)pyridin-1-ium-1-yl)but-2-en-1-yl)pyridin-1-ium dibromide]",increase of RONS (DCFH-DA probe) vs negative control,[2]; 1 h incubation,39.2%
same,increase of RONS (DCFH-DA probe) vs negative control,[2]; 4 h incubation,39.2%
same,increase of RONS (DCFH-DA probe) vs negative control,[2]; 24 h incubation,22.8%
same,increase of free radicals/RONS (DHE probe) vs negative control,[3],8.5%
same,increase of RONS (DHE probe) vs negative control,[3]; 24 h incubation,22.1%
same,resulting MDA levels (in words),[4]; within the 24 h time frame,insignificant
same,decrease in NP-SH levels vs untreated control,[5]; 1 h,17.4%
same,decrease in NP-SH levels vs untreated control,[5]; 24 h,12.1%
same,resulting NP-SS-NP levels (in words),[6]; within the 24 h time frame,insignificant
same,decrease in percentage of intact (live) cells vs control,[7]; 1 h,~8.43%
same,increase in early apoptotic cells vs control,[7]; 1 h,~1.51%
same,increase in late apoptotic cells vs control,[7]; 1 h,4.13%
same,decrease in percentage of live cells vs control,[7]; 4 h,8.8%
same,increase in late apoptotic cells vs control,[7]; 4 h,4.24%
same,increase in necrotic cell population vs control,[7]; 4 h,1.74%
same,decrease in percentage of intact cells vs control,[7]; 24 h,46.6%
same,increase in early apoptotic cells vs control,[7]; 24 h,13.3%
same,increase in late apoptotic cells vs control,[7]; 24 h,32.9%
same,reduction of ROS production,[8],98%
same,low-molecular-weight antioxidants (LMWAs) in plasma,[9],increase
same,IC50,[10],2.05 mM
"O/N=C/c1cc[n+](COC[n+]2ccc(/C=N/O)cc2)cc1 [LüH-6, obidoxime]",IC50,[1],~4 mM
"O/N=C/c1cc[n+](C[n+]2ccc(/C=N/O)cc2)cc1 [MMB-4, methoxime]",IC50,[1],~1 mM
"CC(C)(C)OO [TBHP, tert-butyl hydroperoxide, reference compound]",increase of RONS (DCFH-DA probe) vs negative control,[2]; 1 h incubation,16.7%
same,decrease of RONS (DCFH-DA probe) vs negative control,[2]; 24 h incubation,47.6%
same,increase of free radicals/RONS (DHE probe) vs negative control,[3],30.7%
same,increase of RONS (DHE probe) vs negative control,[3]; 4 h incubation,111%
same,increase of MDA levels vs untreated control,[4]; 4 h incubation,36.1%
same,increase of MDA levels vs untreated control,[4]; 24 h exposure,96.6%
same,decrease in NP-SH levels vs untreated control,[5]; 1 h,24.6%
same,decrease in NP-SH levels vs untreated control,[5]; 4 h,45.0%
same,decrease in NP-SH levels vs untreated control,[5]; 24 h,53.1%
same,increase in NP-SS-NP levels vs untreated control,[6]; 1 h,69.6%
same,increase in NP-SS-NP levels vs untreated control,[6]; 4 h,119%
same,increase in NP-SS-NP levels vs untreated control,[6]; 24 h,166%
same,decrease in percentage of intact (live) cells vs control,[7]; 1 h,~11.6%
same,increase in late apoptotic cells vs control,[7]; 1 h,7.74%
same,increase in necrotic cells vs control,[7]; 1 h,3.24%
same,decrease in percentage of live cells vs control,[7]; 4 h,14.6%
same,increase in early apoptotic cells vs control,[7]; 4 h,1.02%
same,increase in late apoptotic cells vs control,[7]; 4 h,9.79%
same,increase in necrotic cell population vs control,[7]; 4 h,3.77%
same,decrease in percentage of intact cells vs control,[7]; 24 h,42.7%
same,increase in early apoptotic cells vs control,[7]; 24 h,7.42%
same,increase in late apoptotic cells vs control,[7]; 24 h,31.6%
same,increase in necrotic cells vs control,[7]; 24 h,3.66%
same,IC50 at 24 h,[11],130 µM
"O/N=C/c1cc[n+](CCC[n+]2ccc(/C=N/O)cc2)cc1 [TMB-4, trimedoxime]",IC50,[1],~22 mM
"N[C@@H](CCC(=O)N[C@@H](CS)C(=O)NCC(=O)O)C(=O)O [reduced glutathione, glutathione, reference compound]",reduction of ROS production,[8],87%
